Reference: US12097213B2, “Sequential treatment of cancers using 6-thio-dG, checkpoint inhibitors and radiation therapy” (The Board of Regents of the University of Texas System, priority 2020, dated 2024)

How the values were obtained:
[1] = test system: DCs co-cultured with MC38 cells; test: Detection of EdU-labeled tumor DNA in bone marrow derived dendritic cells; type: cell-based, mouse; details: MC38 labeled with 25 μM EdU, 1 μM 6-thio-dG
Protocol: Detection of DNA in Bone Marrow Derived Dendritic Cells. Cells were labeled with EdU as described previously (Min et al., 2019). Briefly, 100,000 MC38 cells were seeded to 6-well plate and labeled with 25 μM EdU. Two days later, cells were washed out and treated with 1 μM 6-thio-dG for 24 hrs. Cells were washed out again and co-cultured with BMDCs for overnight. Next day, DCs were sorted out with magnetic beads, washed, fixed and cytospun. Slides were then stained with 6-carboxytetramethlyrhodamine fluorescent azide (Invitrogen) in fresh homemade EdU-staining solution (PBS containing 1 mM CuSO4, 2 mM ascorbic acid) for 30 min. Slides were then washed vigorously with PBS for at least 1 hr, and then telomere FISH steps using a FAM-TelG probe were followed as described in “Telomere dysfunction Induced Foci (TIF) and micronuclei assays” method parts. Images were captured at 63× magnification with an Axio Imager Z2 equipped with an automatic metaphase capture system (Coolcubel camera) and analyzed with ISIS software (Metasystems).

[2] = test system: MC38 tumor cells; test: MC38 tumor growth and treatment in mice; type: in vivo, mouse
Protocol: (§1) Tumor growth and treatment. A total of 5×10^5 MC38, 5×10^5 CT26 or 1×10^6 LLC cells were inoculated subcutaneously into right dorsal flanks of the mice in 100 μL phosphate buffered saline (PBS). Tumor-bearing mice were randomly grouped into treatment groups when tumors grew to around 100 mm^3. For 6-thio-dG single treatment, 3 mg/kg 6-thio-dG was intraperitoneally given on days 7, 8 and 9 in MC38 tumor and LLC tumor and on days 5, 6, 7 for CT26 tumor. For CSF1R, NKL.1, CD4+ and CD8+ T cell depletion, 200 μg of antibodies were intraperitoneally injected 1 day before treatment initiation and then twice a week for 2 weeks. For PD-L1 blockade combination therapy in MC38 model, 6-thio-dG was given on day 10 and day 11, 50 μg PD-L1 was intraperitoneally injected on day 13 and 17. For PD-L1 blockade combination therapy in LLC model, 6-thio-dG was given on day 4, 5, 6, 10 and 11, 200 μg PD-L1 was intraperitoneally injected on day 8 and 13. Tumor volumes were measured by the length (a), width (b) and height (h) and calculated as tumor volume=abh/2.

[3] = test system: LLC murine lung tumor cells; test: LLC tumor growth and treatment in mice; type: in vivo, mouse
Protocol: as §1, with “For 6-thio-dG single treatment, 3 mg/kg 6-thio-dG was intraperitoneally given on days 7, 8 and 9 in MC38 tumor and LLC tumor and on days 5, 6, 7 for CT26 tumor.” left out

[4] = test system: tumor infiltrating lymphocytes (TILs); test: Flow cytometry of tumor infiltrating cells in MC38 tumor-bearing mice; type: in vivo, mouse
Protocol: Tumor digestion. Tumor tissues were excised and digested with 1 mg/mL Collagenase I (Sigma) and 0.5 mg/mL DNase I (Roche) in the 37° C. for 30 mins, tumor was then passed through a 70 μm cell strainer to remove large pieces of undigested tumor. Tumor infiltrating cells were washed twice with PBS containing 2 mM EDTA. Flow cytometry analysis. Single cell suspensions of cells were incubated with anti-FcγIII/II receptor (clone 2.4G2) for 15 minutes to block the non-specific binding before staining with the conjugated antibodies, and then incubated with indicated antibody for 30 mins at 4° C. in the dark. Fixable viability Dye eFlour 506 or eFlour780 (eBioscience) was used to exclude the dead cells. Foxp3 and Ki67 were stained intracellularly by using True-Nuclear transcription factor buffer set (BioLegend) following the manufacturer's instructions. Data were collected on CytoFLEX flow cytometer (Beckman Coulter, Inc) and analyzed by using FlowJo (Tree Star Inc., Ashland, OR) software.

[5] = test system: tumor-derived xenograft models; details: many tumor-derived xenograft models; cited from earlier work
[6] = test system: tumor-specific T cells; test: IFN-γ ELISPOT of splenocytes / draining lymph node cells; type: in vivo, mouse; details: splenocytes re-stimulated with irradiated MC38 tumor cells 48 hrs; 3 mg/kg, days 7, 8, 9
Protocol: IFN-γ enzyme-linked immunosorbent spot assay (ELISPOT). MC38 tumors were injected subcutaneously on the right flank of C57BL/6. For 6-thio-dG single treatment, 3 mg/kg 6-thio-dG was intraperitoneally given on days 7, 8 and 9; for PD-L1 blockade combination therapy in MC38 model, 3 mg/kg 6-thio-dG was given on day 10 and day 11, 50 μg PD-L1 was intraperitoneally injected on day 11. 7 days after last treatment, tumor draining lymphoid and spleen from tumor-bearing mice were collected and single-cell suspension was prepared. Irradiated MC38 tumor cells and control LLC tumor cells were used to re-stimulate the tumor-specific T cells. 1.5×10^5 draining lymph nodes cells or splenocytes and 7.5×10^4 irradiated tumor cells were co-cultured for 48 hrs, and ELISPOT assay was performed using the IFN-γ ELISPOT kit (BD Bioscience) according to the manufacturer's instructions. IFN-γ spots were enumerated with the CTL-ImmunoSpot® S6 Analyzer (Cellular Technology Limited).

[7] = 6 days after the last of three daily doses, 3 mg/kg

Nc1nc2c(ncn2[C@H]2C[C@H](O)[C@@H](CO)O2)c(=S)[nH]1 [6-thio-dG, 6-thio-2′-deoxyguanosine]
telomere co-localization with EdU in EdU+ DCs [1]: increase | therapeutic effect on tumor growth with CD4+ T cell depletion ([2]; 200 μg anti-CD4, 3 mg/kg, days 7, 8, 9): marginal influence | therapeutic effect on tumor growth with CD8+ T cell depletion ([2]; 200 μg anti-CD8, 3 mg/kg, days 7, 8, 9): completely abolished | tumor growth with macrophage depletion ([2]; 200 μg anti-CSF1R, 3 mg/kg, days 7, 8, 9): worked even better | therapeutic effect with NK cell depletion ([2]; 200 μg anti-NK1.1, 3 mg/kg, days 7, 8, 9): did not see an impact | tumor growth ([2]; Batf3 deficient mice, 3 mg/kg, days 7, 8, 9): partially delayed tumor growth but was significantly less effective compared with WT mice | mice tumor free ([2]; Batf3−/− mice): none | anti-tumor effect ([2]; Ifnar1−/− mice, 3 mg/kg, days 7, 8, 9): abolished | tumor growth ([2]; Mb21d1KO MC38 tumor cells in C57BL/6 mice, 3 mg/kg, days 7, 8, 9): still controlled tumor growth | tumor growth ([2]; Myd88−/− mice, 3 mg/kg, days 7, 8, 9): controlled tumor growth well | therapeutic effect on tumor growth ([2]; Rag1 knock out mice, 3 mg/kg, days 7, 8, 9): completely diminished | tumor growth ([2]; Tmem173KO MC38 tumor cells in C57BL/6 mice, 3 mg/kg, days 7, 8, 9): still controlled tumor growth | tumor growth (efficacy) ([2]; Tmem173−/− mice, 3 mg/kg, days 7, 8, 9): completely lost efficacy | tumor growth ([2]; WT C57BL/6 mice, 3 mg/kg daily for three days (days 7, 8, 9), i.p., vs control tumor): significantly reduced | mice completely tumor free ([2]; WT mice): 60% | re-challenge with MC38 tumor (memory response) ([2]; cured mice rested 5 weeks, 10 times more tumor cells, opposite flank): spontaneously rejected re-challenged MC38 tumors | tumor volume / tumor growth in advanced tumors ([2]; tumor sizes 150-200 mm^3, 6-thio-dG 3 mg/kg days 10, 11, 50 μg anti-PD-L1 days 13 and 17): difficult to control | tumor growth ([3]; C57BL/6 mice, 3 mg/kg, three days treatment (days 4, 5, 6)): significant tumor growth delay | tumor growth (FIG. 8A) ([3]; lewis lung carcinoma, three days 6-thio-dG followed two days later with anti-PD-L1): significant tumor control for 20 days | Treg cells (CD4+ Foxp3+) ([4]; 3 mg/kg, days 7, 8, 9): no significant changes | tumor infiltrating NK cells ([4]; 3 mg/kg, days 7, 8, 9): increased | PD-1 expression on CD8+ T cells (frequency and per cell basis) ([4]; 3 mg/kg, days 7, 8, 9, 7 days after first treatment): upregulated | CD8+ T cell proliferation (Ki67 expression) ([4]; 6 days after last treatment, 3 mg/kg): significant upregulation | frequency of CD3+ T cells in TILs [4, 7]: increase | frequency of CD8+ T cells in TILs [4, 7]: increase | YFP+ T cells in the tumor ([4]; IFN-γ YFP reporter mice, eleven days after last treatment): significantly increased | tumor-specific (OVA tetramer) CD8+ T cells in tumors ([4]; MC38-OVA tumor model, 6 days after 6-thio-dG treatment): increased | side effects in xenograft models [5]: minimal side effects | tumor response in xenograft models [5]: rapid tumor shrinkage or growth arrest | tumor-specific cytotoxic T cell responses (IFN-γ producing T cells) [6]: enhanced
